We go through five molecules from ChEMBL document CHEMBL4665917, “Optimization of Versatile Oxindoles as Selective PI3Kδ Inhibitors” (ACS Med Chem Lett, 2020).

In brackets after ≈: the same amount, converted by molar mass.

One data set is described as follows: Half life in Wistar-Han rat at 0.5 mg/kg, iv or 1 mg/kg, po. The data set is classed as ADME, organism-based. The conditions noted are these: in vivo.
`CCn1c(-c2cnc(C)nc2)nc2c(-c3ccc4c(c3)[C@@]3(CCCN3C(C)C)C(=O)N4)ncnc21`: the half-life (commonly the time needed for the level to fall by half in the phase considered) is 0.6 h.
The molecule `CCn1c(-c2cnc(C)nc2)nc2c(-c3cnc4c(c3)[C@](C)(NCC(C)(C)F)C(=O)N4)ncnc21` showed a half-life of 2.5 h.
Molecule `CCn1c(-c2cnc(C)nc2)nc2c(-c3cnc4c(c3)[C@](C)(N[C@H]3CCOC3)C(=O)N4)ncnc21` had a half-life of 3 h. This half-life and that of the molecule before are within 1.5-fold of each other.
Still for that read-out and setting: the value for `Cc1ncc(-c2nc3c(-c4cnc5c(c4)[C@](C)(N[C@H]4CCOC4)C(=O)N5)ncnc3n2C)cn1` was 1.1 h.
Same read-out and setting: under `CCn1c(-c2cnc(C)nc2)nc2c(-c3ccc4c(c3)[C@](C)(NCC(C)(C)F)C(=O)N4)ncnc21` stands 1.6 h.

The next data set is described as follows: Half life in Beagle dog at 0.5 mg/kg, iv or 1 mg/kg, po. The data set is classed as ADME, organism-based, Canis lupus familiaris. The conditions noted are these: in vivo.
The molecule `CCn1c(-c2cnc(C)nc2)nc2c(-c3ccc4c(c3)[C@@]3(CCCN3C(C)C)C(=O)N4)ncnc21` showed a half-life of 1 h.
`CCn1c(-c2cnc(C)nc2)nc2c(-c3cnc4c(c3)[C@](C)(NCC(C)(C)F)C(=O)N4)ncnc21`: the half-life is 9.3 h.
Same read-out and setting: under `CCn1c(-c2cnc(C)nc2)nc2c(-c3cnc4c(c3)[C@](C)(N[C@H]3CCOC3)C(=O)N4)ncnc21` stands 3.4 h; under `Cc1ncc(-c2nc3c(-c4cnc5c(c4)[C@](C)(N[C@H]4CCOC4)C(=O)N5)ncnc3n2C)cn1`, 2 h; under `CCn1c(-c2cnc(C)nc2)nc2c(-c3ccc4c(c3)[C@](C)(NCC(C)(C)F)C(=O)N4)ncnc21`, 1.4 h.

A further data set is described as follows: Apparent permeability in pig LLC-PK1 cells. The data set is classed as ADME, cell-based, Sus scrofa.
Settings: not given
For the molecule `CCn1c(-c2cnc(C)nc2)nc2c(-c3cnc4c(c3)[C@](C)(NCC(C)(C)F)C(=O)N4)ncnc21`, the Papp (usually the rate of passage across a membrane or cell layer, normalised by area and donor concentration) turned out to be 24 ×10⁻⁶ cm/s.
As to `CCn1c(-c2cnc(C)nc2)nc2c(-c3cnc4c(c3)[C@](C)(N[C@H]3CCOC3)C(=O)N4)ncnc21`, the Papp amounted to 5.7 ×10⁻⁶ cm/s.
The same measure, in the same setting: the value for `CCn1c(-c2cnc(C)nc2)nc2c(-c3ccc4c(c3)[C@](C)(NCC(C)(C)F)C(=O)N4)ncnc21` was 27 ×10⁻⁶ cm/s.

A further data set in a line: Solubility of the compound at pH 7. The data set is classed as physicochemical. The conditions noted are these: buffer.
Consider `CCn1c(-c2cnc(C)nc2)nc2c(-c3ccc4c(c3)[C@@]3(CCCN3C(C)C)C(=O)N4)ncnc21`, for which the concentration in solution (solubility) came to 56 µM (≈ 26.2 µg/mL).
The same measure, in the same setting: under `CCn1c(-c2cnc(C)nc2)nc2c(-c3cnc4c(c3)[C@](C)(NCC(C)(C)F)C(=O)N4)ncnc21` stands 115 µM (≈ 54.7 µg/mL).
On the same count and under the same terms, the value for `CCn1c(-c2cnc(C)nc2)nc2c(-c3cnc4c(c3)[C@](C)(N[C@H]3CCOC3)C(=O)N4)ncnc21` was 150 µM (≈ 70.7 µg/mL); that for `Cc1ncc(-c2nc3c(-c4cnc5c(c4)[C@](C)(N[C@H]4CCOC4)C(=O)N5)ncnc3n2C)cn1` was 140 µM (≈ 64 µg/mL).
As to `CCn1c(-c2cnc(C)nc2)nc2c(-c3ccc4c(c3)[C@](C)(NCC(C)(C)F)C(=O)N4)ncnc21`, the concentration in solution (solubility) came to 130 µM (≈ 61.7 µg/mL). The solubility values of the last two molecules are within 1.5-fold of each other.

The nature of a further data set: Clearance in Wistar-Han rat at 0.5 mg/kg, iv or 1 mg/kg, po. The conditions noted are these: in vivo. In kind it is ADME, organism-based.
Consider `CCn1c(-c2cnc(C)nc2)nc2c(-c3cnc4c(c3)[C@](C)(NCC(C)(C)F)C(=O)N4)ncnc21`, for which the clearance was found to be 12 mL/min/kg.
As for `Cc1ncc(-c2nc3c(-c4cnc5c(c4)[C@](C)(N[C@H]4CCOC4)C(=O)N5)ncnc3n2C)cn1`, the clearance was 58 mL/min/kg.
The same measure, in the same setting: the value for `CCn1c(-c2cnc(C)nc2)nc2c(-c3ccc4c(c3)[C@](C)(NCC(C)(C)F)C(=O)N4)ncnc21` was 28 mL/min/kg.

A further data set can be described thus: Intrinsic clearance in Wistar-Han rat at 0.5 mg/kg, iv or 1 mg/kg, po. In kind it is ADME, organism-based. Conditions: in vivo.
In the case of `CCn1c(-c2cnc(C)nc2)nc2c(-c3cnc4c(c3)[C@](C)(NCC(C)(C)F)C(=O)N4)ncnc21`, the CL was found to be 29 mL/min/kg.
Still for that read-out and setting: under `Cc1ncc(-c2nc3c(-c4cnc5c(c4)[C@](C)(N[C@H]4CCOC4)C(=O)N5)ncnc3n2C)cn1` stands 240 mL/min/kg.
On the same count and under the same terms, the value for `CCn1c(-c2cnc(C)nc2)nc2c(-c3ccc4c(c3)[C@](C)(NCC(C)(C)F)C(=O)N4)ncnc21` was 89 mL/min/kg.

The next data set is described as follows: Volume of distribution in Wistar-Han rat at 0.5 mg/kg, iv or 1 mg/kg, po. The data set is classed as ADME, organism-based. Conditions: in vivo.
In turn, `CCn1c(-c2cnc(C)nc2)nc2c(-c3ccc4c(c3)[C@@]3(CCCN3C(C)C)C(=O)N4)ncnc21` returned a Vd of 3.1 L/kg.
For `CCn1c(-c2cnc(C)nc2)nc2c(-c3cnc4c(c3)[C@](C)(NCC(C)(C)F)C(=O)N4)ncnc21`, the Vd came out at 2.4 L/kg.
Take `CCn1c(-c2cnc(C)nc2)nc2c(-c3cnc4c(c3)[C@](C)(N[C@H]3CCOC3)C(=O)N4)ncnc21`: the Vd was found to be 3.8 L/kg.
`Cc1ncc(-c2nc3c(-c4cnc5c(c4)[C@](C)(N[C@H]4CCOC4)C(=O)N5)ncnc3n2C)cn1` gave a Vd of 2.4 L/kg.
`CCn1c(-c2cnc(C)nc2)nc2c(-c3ccc4c(c3)[C@](C)(NCC(C)(C)F)C(=O)N4)ncnc21` gave a Vd of 3 L/kg.

A further data set can be described thus: Unbound volume of distribution in Wistar-Han rat at 0.5 mg/kg, iv or 1 mg/kg, po. The data set is classed as ADME, organism-based. Conditions: in vivo.
For the molecule `CCn1c(-c2cnc(C)nc2)nc2c(-c3ccc4c(c3)[C@@]3(CCCN3C(C)C)C(=O)N4)ncnc21`, the Vdu worked out at 14 L/kg.
Same read-out and setting: under `CCn1c(-c2cnc(C)nc2)nc2c(-c3cnc4c(c3)[C@](C)(NCC(C)(C)F)C(=O)N4)ncnc21` stands 5 L/kg.
On the same count and under the same terms, under `CCn1c(-c2cnc(C)nc2)nc2c(-c3cnc4c(c3)[C@](C)(N[C@H]3CCOC3)C(=O)N4)ncnc21` stands 4.9 L/kg.
`Cc1ncc(-c2nc3c(-c4cnc5c(c4)[C@](C)(N[C@H]4CCOC4)C(=O)N5)ncnc3n2C)cn1` gave a Vdu of 3.1 L/kg.
In turn, `CCn1c(-c2cnc(C)nc2)nc2c(-c3ccc4c(c3)[C@](C)(NCC(C)(C)F)C(=O)N4)ncnc21` came in with a Vdu of 6.3 L/kg.

The next data set is described as follows: Oral bioavailability in Wistar-Han rat at 1 mg/kg. In kind it is ADME, organism-based. The conditions noted are these: in vivo.
For `CCn1c(-c2cnc(C)nc2)nc2c(-c3cnc4c(c3)[C@](C)(NCC(C)(C)F)C(=O)N4)ncnc21`, the bioavailability (usually dose-corrected exposure relative to a reference, in per cent) was determined as 61%.
On the same count and under the same terms, the value for `CCn1c(-c2cnc(C)nc2)nc2c(-c3cnc4c(c3)[C@](C)(N[C@H]3CCOC3)C(=O)N4)ncnc21` was 33%; that for `CCn1c(-c2cnc(C)nc2)nc2c(-c3ccc4c(c3)[C@](C)(NCC(C)(C)F)C(=O)N4)ncnc21` was 58%.

Another data set is described as follows: Clearance in Beagle dog at 0.5 mg/kg, iv or 1 mg/kg, po. The data set is classed as ADME, organism-based, Canis lupus familiaris. The conditions noted are these: in vivo.
As for `CCn1c(-c2cnc(C)nc2)nc2c(-c3cnc4c(c3)[C@](C)(NCC(C)(C)F)C(=O)N4)ncnc21`, the clearance came to 2.5 mL/min/kg.
The same measure, in the same setting: under `Cc1ncc(-c2nc3c(-c4cnc5c(c4)[C@](C)(N[C@H]4CCOC4)C(=O)N5)ncnc3n2C)cn1` stands 1.9 mL/min/kg.
As for `CCn1c(-c2cnc(C)nc2)nc2c(-c3ccc4c(c3)[C@](C)(NCC(C)(C)F)C(=O)N4)ncnc21`, the clearance was determined as 39 mL/min/kg.

A short description of another data set: Intrinsic clearance in Beagle dog at 0.5 mg/kg, iv or 1 mg/kg, po. The data set is classed as ADME, organism-based, Canis lupus familiaris. Conditions: in vivo.
Molecule `CCn1c(-c2cnc(C)nc2)nc2c(-c3cnc4c(c3)[C@](C)(NCC(C)(C)F)C(=O)N4)ncnc21` had a CL of 6 mL/min/kg.
The same measure, in the same setting: the value for `Cc1ncc(-c2nc3c(-c4cnc5c(c4)[C@](C)(N[C@H]4CCOC4)C(=O)N5)ncnc3n2C)cn1` was 3 mL/min/kg.

The next data set in a line: Volume of distribution in Beagle dog at 0.5 mg/kg, iv or 1 mg/kg, po. The conditions noted are these: in vivo. The data set is classed as ADME, organism-based, Canis lupus familiaris.
`CCn1c(-c2cnc(C)nc2)nc2c(-c3ccc4c(c3)[C@@]3(CCCN3C(C)C)C(=O)N4)ncnc21` came in with a Vd of 2.2 L/kg.
On to `CCn1c(-c2cnc(C)nc2)nc2c(-c3cnc4c(c3)[C@](C)(NCC(C)(C)F)C(=O)N4)ncnc21`, for which the Vd stood at 1.4 L/kg.
For `CCn1c(-c2cnc(C)nc2)nc2c(-c3cnc4c(c3)[C@](C)(N[C@H]3CCOC3)C(=O)N4)ncnc21`, the Vd was determined as 1.2 L/kg.
`Cc1ncc(-c2nc3c(-c4cnc5c(c4)[C@](C)(N[C@H]4CCOC4)C(=O)N5)ncnc3n2C)cn1`: the Vd came to 0.2 L/kg.
In turn, `CCn1c(-c2cnc(C)nc2)nc2c(-c3ccc4c(c3)[C@](C)(NCC(C)(C)F)C(=O)N4)ncnc21` came in with a Vd of 2.9 L/kg.

The nature of another data set: Unbound volume of distribution in Beagle dog at 0.5 mg/kg, iv or 1 mg/kg, po. The data set is classed as ADME, organism-based, Canis lupus familiaris. Conditions: in vivo.
For `CCn1c(-c2cnc(C)nc2)nc2c(-c3ccc4c(c3)[C@@]3(CCCN3C(C)C)C(=O)N4)ncnc21`, the Vdu came to 11 L/kg.
`CCn1c(-c2cnc(C)nc2)nc2c(-c3cnc4c(c3)[C@](C)(NCC(C)(C)F)C(=O)N4)ncnc21` had a Vdu of 3.3 L/kg.
`CCn1c(-c2cnc(C)nc2)nc2c(-c3cnc4c(c3)[C@](C)(N[C@H]3CCOC3)C(=O)N4)ncnc21` gave a Vdu of 1.6 L/kg.
As to `Cc1ncc(-c2nc3c(-c4cnc5c(c4)[C@](C)(N[C@H]4CCOC4)C(=O)N5)ncnc3n2C)cn1`, the Vdu came out at 0.3 L/kg.
Still for that read-out and setting: the value for `CCn1c(-c2cnc(C)nc2)nc2c(-c3ccc4c(c3)[C@](C)(NCC(C)(C)F)C(=O)N4)ncnc21` was 8.7 L/kg.

A further data set in a line: Oral bioavailability in Beagle dog at 1 mg/kg. Conditions: in vivo. In kind it is ADME, organism-based, Canis lupus familiaris.
`CCn1c(-c2cnc(C)nc2)nc2c(-c3cnc4c(c3)[C@](C)(NCC(C)(C)F)C(=O)N4)ncnc21`: the bioavailability is 100%.
Still for that read-out and setting: under `CCn1c(-c2cnc(C)nc2)nc2c(-c3cnc4c(c3)[C@](C)(N[C@H]3CCOC3)C(=O)N4)ncnc21` stands 91%; under `CCn1c(-c2cnc(C)nc2)nc2c(-c3ccc4c(c3)[C@](C)(NCC(C)(C)F)C(=O)N4)ncnc21`, 25%.

A further data set is described as follows: AUC in rat at 100 mg/kg. In kind it is ADME, organism-based. Further details: dose 100 mg/kg. The conditions noted are these: in vivo.
`CCn1c(-c2cnc(C)nc2)nc2c(-c3cnc4c(c3)[C@](C)(NCC(C)(C)F)C(=O)N4)ncnc21`: the exposure (AUC) – broadly, the area under the concentration-time curve, a measure of exposure – is 390 µM·h.

The next data set can be described thus: cells. The conditions noted are these: Homo sapiens, HeLa.
On to `CCn1c(-c2cnc(C)nc2)nc2c(-c3cnc4c(c3)[C@](C)(N[C@H]3CCOC3)C(=O)N4)ncnc21`, for which the half-maximal inhibitory concentration (IC50) (in general, the concentration that gives 50% inhibition) was > 10 µM.
The molecule `Cc1ncc(-c2nc3c(-c4cnc5c(c4)[C@](C)(N[C@H]4CCOC4)C(=O)N5)ncnc3n2C)cn1` showed an IC50 of 8.2 µM.
